Experimental data taken from patent US20260092039A1, “DUAL INHIBITORS FOR THE TREATMENT OF ALZHEIMER'S DISEASE” (UNIVERSITAT DE BARCELONA, priority 2023, published 2026).

Assays:
[1] = target: T1, recombinant human sEH (hsEH) (Homo sapiens, UniProt P34913); test: In vitro determination of sEH inhibitory activity (fluorescent PHOME assay)
T1 sequence (P34913 1-555): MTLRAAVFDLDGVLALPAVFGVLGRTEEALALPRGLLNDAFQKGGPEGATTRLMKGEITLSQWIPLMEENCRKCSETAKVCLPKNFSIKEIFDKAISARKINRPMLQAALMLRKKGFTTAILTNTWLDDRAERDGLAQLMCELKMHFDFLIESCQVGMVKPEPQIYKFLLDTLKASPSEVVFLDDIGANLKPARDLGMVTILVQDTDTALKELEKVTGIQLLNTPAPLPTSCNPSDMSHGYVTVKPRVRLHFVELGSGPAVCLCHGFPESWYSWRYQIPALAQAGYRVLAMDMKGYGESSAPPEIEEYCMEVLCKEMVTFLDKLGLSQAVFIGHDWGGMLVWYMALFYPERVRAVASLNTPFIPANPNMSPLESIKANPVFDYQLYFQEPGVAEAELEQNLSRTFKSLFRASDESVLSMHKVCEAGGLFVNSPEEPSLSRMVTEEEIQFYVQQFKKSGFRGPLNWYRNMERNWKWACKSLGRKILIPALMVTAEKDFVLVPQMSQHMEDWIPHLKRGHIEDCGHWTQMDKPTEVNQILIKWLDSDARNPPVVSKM
Description: Control compound (TPPU): N-[1-(1-Oxopropyl)-4-piperidinyl]-N′-[4-(trifluoromethoxy)phenyl]urea.
Five μL of DMSO were added to background and positive control wells, and then 5 μL of inhibitor solution were added in the inhibitor wells. Five μL of the solution of hsEH were added to the positive control and inhibitor wells and the mixture was stirred. A 1/21 dilution of the solution of PHOME with assay buffer was prepared according to the final volume required, and then 105 μL of each well were added. The plate was carefully shaken for 10 seconds and was incubated for 5 minutes at room temperature. […] The intensity of fluorescence was used to analyze and calculate the IC50 values. Results were obtained by regression analysis from at least three data points in a linear region of the curve. IC50 values are average of minimum three independent replicates.

[2] = target: T2, human recombinant glutaminyl cyclase (hQC) (Homo sapiens, UniProt Q16769); test: In vitro determination of human QC inhibitory activity (SensoLyte Green Glutaminyl Cyclase Activity Assay Kit); assay type: biochemical
T2 construct: purchased Eurogentec AS-72230
Description: Basic statistical analysis was performed.

[3] = Parallel artificial membrane permeation assay for blood-brain barrier (PAMPA-BBB); assay type: in vitro ADME, porcine; conditions: for Papp: pig, PBS:EtOH (70:30), read-out: Blood-brain barrier permeability Pe; for CNS prediction: predictive penetration in the CNS from Pe
Description: A parallel artificial membrane permeation assay for blood-brain barrier (PAMPA-BBB) was used to evaluate the brain penetration of compounds of formula I, following the method described by L. Di et al., “High throughput artificial membrane permeability assay for blood-brain barrier”, European Journal of Medicinal Chemistry 2003, vol. 38. pp. 223-232. The in vitro permeability (Pe) of the test compounds through a lipid extract of porcine brain membrane was determined. Assayed compounds were tested using a mixture of PBS:EtOH (70:30). Assay validation was made by comparing the experimental and reported permeability values of a set of fourteen commercial drugs and a lineal correlation between experimental and reported permeability values of the fourteen commercial drugs was obtained (y=1.678 x−1.447; R^2=0.9313). From this equation and taking into account the limits established by Di et al. for BBB permeation, the ranges of permeability were established, as follows. Compounds of high BBB permeation (CNS+): Pe (10^−6 cm s^−1)>5.26; compounds of low BBB permeation (CNS−): Pe (10^−6 cm s^−1)<1.91; and compounds of uncertain BBB permeation (CNS+/−): 5.26>Pe (10^−6 cm s^−1)>1.91. The permeability results are averages of three different experiments in triplicate and a predictive penetration in the CNS is also given (Table 5).

LPS stimulated BV2 cells = test: Cytokine release in LPS stimulated BV2 cells; assay type: cell-based, murine; conditions: compound 10 μM, 24 h
Description: Compounds of formula I were diluted from 250 mM DMSO stock solutions to a 10 mM stock in DMSO. Thereafter, the compounds were diluted to 10 μM and 1 μM in medium, so that the final DMSO concentration in the well was 0.1% for all conditions. The stock solutions were stored at −20° C. until further use.
Culture and treatment of BV-2 cells: The murine microglial cell line BV-2 was cultivated in Dulbecco's modified eagle medium (DMEM) supplemented with 10% fetal calf serum (FCS), 1% penicillin/streptomycin and 2 mM L-glutamine (culture medium). For the lipopolysaccharide (LPS) stimulation assay, 20,000 BV-2 cells per well (uncoated 96 well plates) were plated out. After 48 h, the medium was changed to treatment medium (DMEM, 5% FCS, 2 mM L-glutamine) and cells were maintained in treatment medium for the remaining culture period. After changing cells to treatment medium, the compounds were administered 1 h before LPS stimulation (Sigma-Aldrich; L6529; 1 mg/mL stock in ddH2O, final concentration in well: 100 ng/mL (dilutions in medium)). Cells treated with vehicle and LPS alone served as controls. All wells were handled the same way. After 24 h of stimulation, cell supernatants were collected for the cytokine measurement. The experiment was performed in n=6 technical replicates for all groups.
Cytokine measurement: The samples were diluted 1:2 and analysed for 4 cytokines (IL-1β, IL-2, IL-6, TNF-α) with a commercially available immunosorbent assay kit (U-plex, K15069L, Mesoscale Discovery) according to the instructions of the manufacturer. In brief, 25 μL of diluent 41 and 25 μL sample or respective standard were placed into wells of the pre-coated U-plex plate and incubated on an orbital shaker at room temperature for 1 h. Plates were washed 3 times with phosphate buffered saline with 0.05% Tween 20 (PBST) and thereafter 50 μL of detection antibody were added. Plates were again incubated on an orbital shaker at room temperature for 1 h. After another 3 washing steps with PBST, 150 μL of Mesoscale Discovery (MSD) GOLD Read Buffer were added and plates were read on Sector imager. Data were evaluated in comparison to calibration curves provided in the kit.
Statistics: Basic statistical analysis was performed. Group differences were evaluated by e.g. one-way ANOVA followed by a posthoc test, if appropriate.

T2 sequence (Q16769 29-361): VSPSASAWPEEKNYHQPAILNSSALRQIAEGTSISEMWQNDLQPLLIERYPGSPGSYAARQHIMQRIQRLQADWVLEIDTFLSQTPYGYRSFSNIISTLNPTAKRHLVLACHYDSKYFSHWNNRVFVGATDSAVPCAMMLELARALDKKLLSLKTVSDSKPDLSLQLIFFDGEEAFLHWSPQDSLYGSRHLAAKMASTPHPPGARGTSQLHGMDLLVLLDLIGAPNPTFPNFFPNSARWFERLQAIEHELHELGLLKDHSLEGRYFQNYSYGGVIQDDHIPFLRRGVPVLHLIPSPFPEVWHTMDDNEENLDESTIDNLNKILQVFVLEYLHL

Cc1cncn1CCCNC(=O)NC1C2CC3CC(C2)CC1(F)C3 (racemic) [Iaa, (±)-1-(1-fluoroadamantan-2-yl)-3-[3-(5-methyl-1H-imidazol-1-yl)propyl]urea]
IC50 [1]: 5.9 µM
IC50 [2]: 0.767 µM
Papp [3]: 7.4 ×10⁻⁶ cm/s
CNS prediction [3]: CNS+ (Compounds of high BBB permeation (CNS+): Pe (10^−6 cm s^−1)>5.26)

Cc1cncn1CCCNC(=O)NC1C2CC3CC(C2)CC1(Cl)C3 (racemic) [Iz, (±)-1-(1-chloroadamantan-2-yl)-3-[3-(5-methyl-1H-imidazol-1-yl)propyl]urea]
IC50 [1]: 0.03 µM
IC50 [2]: 0.496 µM
Papp [3]: 6 ×10⁻⁶ cm/s
CNS prediction [3]: CNS+ (Compounds of high BBB permeation (CNS+): Pe (10^−6 cm s^−1)>5.26)

Cc1cncn1CCCNC(=O)NC12CC3CC(CC(C3)C1)C2 [Ia, 1-(adamantan-1-yl)-3-[3-(5-methyl-1H-imidazol-1-yl)propyl]urea]
IC50 [1]: 0.035 µM
IC50 [2]: 0.61 µM
Papp [3]: 7.1 ×10⁻⁶ cm/s
CNS prediction [3]: CNS+ (Compounds of high BBB permeation (CNS+): Pe (10^−6 cm s^−1)>5.26)

Cc1cncn1CCCNC(=O)N[C@H]1C2CC3CC1C[C@](Cl)(C3)C2 [Iab, trans-1-(5-chloroadamantan-2-yl)-3-[3-(5-methyl-1H-imidazol-1-yl)propyl]urea]
IC50 [1]: 0.039 µM
IC50 [2]: 0.559 µM
Papp [3]: 13.1 ×10⁻⁶ cm/s
CNS prediction [3]: CNS+ (Compounds of high BBB permeation (CNS+): Pe (10^−6 cm s^−1)>5.26)

Cc1cncn1CCCNC(=O)N[C@H]1C2CC3CC1C[C@](F)(C3)C2 [Iac, trans-1-(5-fluoroadamantan-2-yl)-3-[3-(5-methyl-1H-imidazol-1-yl)propyl]urea]
IC50 [1]: 0.02 µM
IC50 [2]: 0.236 µM
Papp [3]: 8.6 ×10⁻⁶ cm/s
CNS prediction [3]: CNS+ (Compounds of high BBB permeation (CNS+): Pe (10^−6 cm s^−1)>5.26)

O=C(NCCCn1ccnc1)NC12CC3CC(CC(C3)C1)C2 [Ib, 1-[3-(1H-imidazol-1-yl)propyl]-3-(adamantan-1-yl)urea]
IC50 [1]: 0.093 µM
IC50 [2]: 12.7 µM

Cc1cncn1CCCNC(=O)NC12CC3CC(CC(C)(C3)C1)C2 [Ic, 1-[3-(5-methyl-1H-imidazol-1-yl)propyl]-3-(3-methyladamantan-1-yl)urea]
IC50 [1]: 0.0133 µM
Papp [3]: 10.2 ×10⁻⁶ cm/s
CNS prediction [3]: CNS+ (Compounds of high BBB permeation (CNS+): Pe (10^−6 cm s^−1)>5.26)

Cc1cncn1CCCNC(=O)NC12CC3CC(C)(CC(C)(C3)C1)C2 [Ie, 1-(3,5-dimethyladamantan-1-yl)-3-[3-(5-methyl-1H-imidazol-1-yl)propyl]urea]
IC50 [1]: 0.029 µM
IC50 [2]: 2.1 µM
Papp [3]: 8.8 ×10⁻⁶ cm/s
CNS prediction [3]: CNS+ (Compounds of high BBB permeation (CNS+): Pe (10^−6 cm s^−1)>5.26)

Cc1cncn1CCCNC(=O)NC12CC3CC(CC(Cl)(C3)C1)C2 [If, 1-(3-chloroadamantan-1-yl)-3-[3-(5-methyl-1H-imidazol-1-yl)propyl]urea]
IC50 [1]: 0.037 µM
IC50 [2]: 0.99 µM

Cc1cncn1CCCNC(=O)NC12CC3CC(CC(F)(C3)C1)C2 [Ig, 1-(3-fluoroadamantan-1-yl)-3-[3-(5-methyl-1H-imidazol-1-yl)propyl]urea]
IC50 [1]: 0.15 µM
IC50 [2]: 0.81 µM

Cc1cncn1CCCNC(=O)NC12CC3CC(CC(O)(C3)C1)C2 [Ih, 1-(3-hydroxyadamantan-1-yl)-3-[3-(5-methyl-1H-imidazol-1-yl)propyl]urea]
IC50 [1]: 0.33 µM
IC50 [2]: 1.04 µM

O=C(NCCCn1ccnc1)NC1C2CC3CC(C2)CC1C3 (stereo not shown) [Ij, 1-[3-(1H-imidazol-1-yl)propyl]-3-(adamantan-2-yl)urea]
IC50 [1]: 0.045 µM
IC50 [2]: 5.2 µM
Papp [3]: 9.4 ×10⁻⁶ cm/s
CNS prediction [3]: CNS+ (Compounds of high BBB permeation (CNS+): Pe (10^−6 cm s^−1)>5.26)

Cc1cncn1CCCNC(=O)NCC12CC3CC(CC(C3)C1)C2 [Ik, 1-[(adamantan-1-yl)methyl]-3-[3-(5-methyl-1H-imidazol-1-yl)propyl]urea]
IC50 [1]: 0.009 µM
IC50 [2]: 0.73 µM
Papp [3]: 14.1 ×10⁻⁶ cm/s
CNS prediction [3]: CNS+ (Compounds of high BBB permeation (CNS+): Pe (10^−6 cm s^−1)>5.26)

O=C(NCCCn1ccnc1)NCC12CC3CC(CC(C3)C1)C2 [Im, 1-[3-(1H-imidazol-1-yl)propyl]-3-[(adamantan-1-yl)methyl]urea]
IC50 [1]: 0.3 µM
IC50 [2]: 3.5 µM
Papp [3]: 11.8 ×10⁻⁶ cm/s
CNS prediction [3]: CNS+ (Compounds of high BBB permeation (CNS+): Pe (10^−6 cm s^−1)>5.26)

Cc1cncn1CCCNC(=O)NCCC12CC3CC(CC(C3)C1)C2 [Io, 1-[2-(adamantan-1-yl)ethyl]-3-[3-(5-methyl-1H-imidazol-1-yl)propyl]urea]
IC50 [1]: 0.0013 µM
IC50 [2]: 1.65 µM
Papp [3]: 18.7 ×10⁻⁶ cm/s
CNS prediction [3]: CNS+ (Compounds of high BBB permeation (CNS+): Pe (10^−6 cm s^−1)>5.26)

Cc1cncn1CCCNC(=O)NC12CC3CC(CC(C3)O1)C2 [Iq, 1-(2-oxaadamantan-1-yl)-3-[3-(5-methyl-1H-imidazol-1-yl)propyl]urea]
IC50 [1]: 5.1 µM
Papp [3]: 26.4 ×10⁻⁶ cm/s
CNS prediction [3]: CNS+ (Compounds of high BBB permeation (CNS+): Pe (10^−6 cm s^−1)>5.26)

Cc1cncn1CCCNC(=O)NCC12CC3CC(CC1C3)C2 [Iu, 1-[(noradamantan-3-yl)methyl]-3-[3-(5-methyl-1H-imidazol-1-yl)propyl]urea]
IC50 [1]: 0.194 µM
Papp [3]: 5.4 ×10⁻⁶ cm/s
CNS prediction [3]: CNS+ (Compounds of high BBB permeation (CNS+): Pe (10^−6 cm s^−1)>5.26)

Cc1cncn1CCCNC(=O)NCC12CC3(C)C4(C)CC1CC4(C)C3(C)C2 [Iw, 1-[3-(5-methyl-1H-imidazol-1-yl)propyl]-3-[(3,4,8,9-tetramethyltetracyclo[4.4.0.0^3,9.0^4,8]decan-1-yl)methyl]urea]
IC50 [1]: 0.072 µM
IC50 [2]: 6.8 µM

Cc1cncn1CCCNC(=O)NC(C)C12CC3CC(CC(C3)C1)C2 (stereo not shown) [Ix, 1-[1-(adamantan-1-yl)ethyl]-3-[3-(5-methyl-1H-imidazol-1-yl)propyl]urea]
IC50 [1]: 0.059 µM
Papp [3]: 6.5 ×10⁻⁶ cm/s
CNS prediction [3]: CNS+ (Compounds of high BBB permeation (CNS+): Pe (10^−6 cm s^−1)>5.26)

CCC(=O)N1CCC(NC(=O)Nc2ccc(OC(F)(F)F)cc2)CC1 [TPPU, N-[1-(1-Oxopropyl)-4-piperidinyl]-N′-[4-(trifluoromethoxy)phenyl]urea, reference compound]
IL-1β level (LPS stimulated BV2 cells): 125 % of vehicle control
IL-2 level (LPS stimulated BV2 cells): 113 % of vehicle control
IL-6 level (LPS stimulated BV2 cells): 117 % of vehicle control
TNF-α level (LPS stimulated BV2 cells): 96 % of vehicle control

C[C@@H]1C[C@H]2[C@@H]3CCC4=CC(=O)C=C[C@]4(C)[C@@]3(F)[C@@H](O)C[C@]2(C)[C@@]1(O)C(=O)CO [dexamethasone, reference compound]
IL-1β level (LPS stimulated BV2 cells): 42 % of vehicle control
IL-2 level (LPS stimulated BV2 cells): 50 % of vehicle control
IL-6 level (LPS stimulated BV2 cells): 55 % of vehicle control
TNF-α level (LPS stimulated BV2 cells): 49 % of vehicle control
